Laboratory results from PubChem BioAssay (NCI).
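Where inhibition never reached the appropriate level, the endpoint shown equals the highest concentration tested. Otherwise, values were interpolated linearly from a five-concentration, 48-hour dose response in 96-well plates. Here, GI50 denotes the concentration required for 50% inhibition of growth. At the TGI there is no net growth.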 Where a SMILES comes first, the peptide text is derived from it. The star is where a group is joined. Cbz = O=C(OCc1ccccc1)*; OBn = c1ccc(CO*)cc1

What was measured:
Assay in all cases: growth of human tumour cells (NCI), 48 h
SF-268 CNS = test system: SF-268 CNS
ACHN renal = test system: ACHN renal
MALME-3M melanoma = test system: MALME-3M melanoma
M14 melanoma = test system: M14 melanoma
HCT-116 colon = test system: HCT-116 colon
HOP-62 NSCLC = test system: HOP-62 NSCLC
OVCAR-8 ovarian = test system: OVCAR-8 ovarian
OVCAR-4 ovarian = test system: OVCAR-4 ovarian
A549 NSCLC = test system: A549 NSCLC
MDA-MB-231 breast = test system: MDA-MB-231 breast

Compound	TGI (SF-268 CNS) [µM]	TGI (ACHN renal) [µM]	TGI (MALME-3M melanoma) [µM]	TGI (M14 melanoma) [µM]	TGI (HCT-116 colon) [µM]	TGI (HOP-62 NSCLC) [µM]	TGI (OVCAR-8 ovarian) [µM]	TGI (OVCAR-4 ovarian) [µM]	TGI (A549 NSCLC) [µM]	GI50 (SF-268 CNS) [µM]	GI50 (ACHN renal) [µM]	GI50 (MDA-MB-231 breast) [µM]	TGI (MDA-MB-231 breast) [µM]	GI50 (MALME-3M melanoma) [µM]	GI50 (OVCAR-8 ovarian) [µM]	GI50 (OVCAR-4 ovarian) [µM]	GI50 (A549 NSCLC) [µM]	GI50 (M14 melanoma) [µM]	GI50 (HCT-116 colon) [µM]	GI50 (HOP-62 NSCLC) [µM]
Cn1c(O)c(C(=O)Nc2cccs2)c(=O)[nH]c1=S	41.9	43.7	29.5	64.3	26.5	40.6	66.2	66.1	45	–	–	–	–	–	–	–	–	–	–	–
N#CC(C#N)=CN1CCN(C(=O)c2ccco2)C1=S	89.4	50.5	> 100	–	–	–	> 100	46	47.7	31.4	9.4	2.92	17.3	47.8	14.6	20.1	13.5	–	–	–
O=C(NO)c1ccc([N+](=O)[O-])cc1	> 100	–	> 100	> 100	–	> 100	> 100	–	> 100	–	–	–	–	–	–	–	–	–	–	–
CC1CC2OC(=O)C3CC(O)CC(=C23)[C@@]12C[C@@H](c1ccoc1)OC2=O (stereo not given in full)	> 100	> 100	> 100	> 100	> 100	–	> 100	> 100	> 100	–	–	–	–	–	–	–	–	–	–	–
COc1ccc(/C=C2\OC(=O)C(Cl)=C2c2ccc(OC)cc2)cc1	> 100	> 100	> 100	> 100	–	> 100	> 100	> 100	> 100	–	–	–	> 100	–	–	–	–	–	–	–
CCOC(=O)/C(N=Nc1ccc(-n2c(C)nc3ccccc3c2=O)cc1)=C(/C)O	> 100	> 100	–	> 100	> 100	> 100	50.5	–	> 100	–	–	–	> 100	–	–	–	–	–	–	–
Nc1ccn(C2CC(O)C(COP(O)(=S)OC3CC(n4ccc(N)nc4=O)OC3CO)O2)c(=O)n1 (stereo not given)	> 100	> 100	–	> 100	> 100	> 100	> 100	> 100	> 100	–	–	–	> 100	–	–	–	–	–	–	–
COc1cc(/C=C\c2ccccn2)cc(OC)c1OC	> 100	> 100	> 100	> 100	> 100	> 100	> 100	> 100	> 100	–	–	–	–	–	–	–	–	–	–	–
COc1cc(/C=C/C(=O)c2sc(-n3nc(-c4ccccc4)cc3-c3ccccc3)nc2C)ccc1O	> 100	> 100	> 100	–	–	> 100	> 100	–	> 100	–	–	–	–	–	–	–	–	–	–	–
CCOC(=O)CSc1ccnc(=O)[nH]1	> 100	> 100	> 100	> 100	> 100	–	> 100	–	> 100	–	–	–	–	–	–	–	–	–	–	–
COc1ccccc1C1CC(=O)CC(c2ccccc2OC)C12C(=O)NC(=S)NC2=O (stereo not given)	> 100	> 100	> 100	> 100	> 100	> 100	> 100	> 100	–	–	–	–	> 100	–	–	–	–	–	–	–
CN(C(=O)C12C3C4C1C1C2C3C41I)C(C)(C)C (stereo not given)	> 100	> 100	> 100	> 100	> 100	> 100	> 100	> 100	> 100	–	–	–	–	–	–	–	–	–	–	–
Cc1c(C#N)c2nnn(C)c(=O)n2c1-c1ccccc1	> 100	> 100	–	> 100	–	> 100	> 100	> 100	> 100	–	–	–	> 100	–	–	–	–	–	–	–
COc1ccc2c(c1)CC[C@@H]1[C@@H]2CC[C@]2(C)C(=O)C3(CCCCC3)C[C@@H]12	–	> 100	> 100	> 100	> 100	> 100	> 100	> 100	> 100	–	> 100	> 100	> 100	> 100	> 100	> 100	> 100	> 100	> 100	> 100
N#CC1(C#N)C2CCCCC23OC(=N)C1(C#N)C(c1ccco1)O3 (stereo not given)	67.4	94.2	48.3	41.6	38.5	–	73.6	–	> 100	–	–	–	33	–	–	–	–	–	–	–
Cn1nc(Cc2ccc(Cl)cc2)n(N)c1=O	> 100	> 100	> 100	–	> 100	–	> 100	–	> 100	–	–	–	> 100	–	–	–	–	–	–	–
CC(C)OP(=O)(OC(C)C)C(C(C)C)N(C)/C(N)=N\C1=NC(C(F)(F)F)(C(F)(F)F)N=C(C(C(F)(F)F)C(F)(F)F)O1 (stereo not given)	12	8.67	22.7	4.23	6.6	18	5.28	–	14.6	–	–	–	4.33	–	–	–	–	–	–	–
CCOC(C[C@H](O)[C@H]1COC(=S)S1)OCC	> 100	> 100	> 100	> 100	> 100	> 100	> 100	–	> 100	–	–	–	–	–	–	–	–	–	–	–
O=c1[nH]c(=O)n(C2OC(CO)C(O)C(F)C2O)cc1F (stereo not given)	> 100	> 100	> 100	> 100	> 100	–	> 100	> 100	> 100	–	–	–	> 100	–	–	–	–	–	–	–
CC(C)=CCCC1(C)C=Cc2c(c(C)cc3c2[nH]c2cc(O)ccc23)O1 (stereo not given)	> 25	> 25	> 25	> 25	> 25	> 25	> 25	> 25	> 25	–	–	–	–	–	–	–	–	–	–	–
O=S(=O)([O-])[O-].[Fe+2].c1ccc(/C(=N\Nc2ccccn2)c2ccccn2)cc1	19.3	5.35	10.1	4.89	4.56	12	10.8	2.96	8.82	–	–	–	–	–	–	–	–	–	–	–
COC(=O)CNC(=O)C(C)NC(=O)C(CC(=O)OCc1ccccc1)NC(=O)OCc1ccccc1 (stereo not drawn) (Cbz-Asp(OBn)-Ala-Gly-OMe; configuration not given here)	–	–	> 100	> 100	> 100	> 100	> 100	–	> 100	–	–	–	46.9	–	–	–	–	–	–	–
